What all share (test): KINOMEscan competition binding
Assay [1] addresses AAK1 (human) (UniProt Q2M2I8). Conditions: compound 10.0 µM.
Assay [2] relates to ABL1 (human), P00519 [T315I]. Conditions: compound 10.0 µM.
The target of assay [3] is ACVR2B (human) (UniProt Q13705). The note with it: compound 10.0 µM.
Assay [4] deals with AKT1 (human) (UniProt P31749). The note with it: compound 10.0 µM.
The target in assay [5] is AURKC (human) (UniProt Q9UQB9). Conditions: compound 10.0 µM.
The target of assay [6] is BMPR1A (human) (UniProt P36894). The note with it: compound 10.0 µM.
For assay [7], the target named is BRSK2 (human) (UniProt Q8IWQ3). Conditions: compound 10.0 µM.
The target in assay [8] is CAMK2A (human) (UniProt Q9UQM7). The note with it: compound 10.0 µM.
For assay [9], the target named is CAMKK2 (human) (UniProt Q96RR4). The note with it: compound 10.0 µM.
The target in assay [10] is CDK17 (human) (UniProt Q00537). Conditions: compound 10.0 µM.
The target of assay [11] is CLK2 (human) (UniProt P49760). Conditions: for kinase still bound, per cent of control: compound 10.0 µM.
The target in assay [12] is CSNK1D (human) (UniProt P48730). Conditions: compound 10.0 µM.
In assay [13] the target is CSNK1G1 (human) (UniProt Q9HCP0). Conditions: compound 10.0 µM.
Assay [14] addresses DDR1 (human) (UniProt Q08345). The note with it: compound 10.0 µM.
Assay [15] deals with DYRK1B (human) (UniProt Q9Y463). Conditions: compound 10.0 µM.
Assay [16] concerns EGFR (human), P00533 [P753S; 747-752 del]. Conditions: compound 10.0 µM.
Assay [17] has as its target EPHA1 (human) (UniProt P21709). The note with it: compound 10.0 µM.
The target of assay [18] is EPHA3 (human) (UniProt P29320). The note with it: compound 10.0 µM.
Assay [19] concerns FLT3 (human), P36888 [D835Y]. The note with it: compound 10.0 µM.
Assay [20] addresses GSK3A (human) (UniProt P49840). The note with it: compound 10.0 µM.
The target in assay [21] is IGF1R (human) (UniProt P08069). The note with it: compound 10.0 µM.
The target of assay [22] is LATS1 (human) (UniProt O95835). Conditions: compound 10.0 µM.
The target in assay [23] is MAP3K7 (human) (UniProt O43318). The note with it: compound 10.0 µM.
The target of assay [24] is MARK2 (human) (UniProt Q7KZI7). The note with it: compound 10.0 µM.
For assay [25], the target named is MINK1 (human) (UniProt Q8N4C8). The note with it: compound 10.0 µM.
Assay [26] concerns the target PDPK1 (human) (UniProt O15530). The note with it: compound 10.0 µM.
The target in assay [27] is PIK3CA (human) (UniProt P42336). The note with it: compound 10.0 µM.
For assay [28], the target named is PIM3 (human) (UniProt Q86V86). Conditions: for kinase still bound, per cent of control: compound 10.0 µM.
Assay [29] addresses PKN1 (human) (UniProt Q16512). Conditions: compound 10.0 µM.
Assay [30] has as its target PLK4 (human) (UniProt O00444). Conditions: compound 10.0 µM.
The target of assay [31] is PTK2 (human) (UniProt Q05397). The note with it: compound 10.0 µM.
For assay [32], the target named is RAF1 (human) (UniProt P04049). The note with it: compound 10.0 µM.
The target of assay [33] is RIPK2 (human) (UniProt O43353). Conditions: compound 10.0 µM.
For assay [34], the target named is RPS6KA6 KD2 (human) (UniProt Q9UK32). Conditions: compound 10.0 µM.
The target of assay [35] is STK16 (human) (UniProt O75716). Conditions: compound 10.0 µM.
Assay [36] has as its target STK3 (human) (UniProt Q13188). The note with it: compound 10.0 µM.
Assay [37] concerns the target STK32B (human) (UniProt Q9NY57). The note with it: compound 10.0 µM.
Assay [38] concerns the target TEK (human) (UniProt Q02763). Conditions: compound 10.0 µM.
The target in assay [39] is TLK2 (human) (UniProt Q86UE8). Conditions: compound 10.0 µM.
The target in assay [40] is TNK1 (human) (UniProt Q13470). Conditions: compound 10.0 µM.
Assay [41] addresses TYK2 JH1 catalytic (human) (UniProt P29597). The note with it: compound 10.0 µM.
The target of assay [42] is ULK2 (human) (UniProt Q8IYT8). The note with it: for kinase still bound, per cent of control: compound 10.0 µM.

A word on the Kd: it is the free concentration of one partner at which half of the binding sites on the other are occupied at equilibrium, for simple one-to-one binding.

Chain of CAMKK2 (human) (Q96RR4 whole entry, looked up): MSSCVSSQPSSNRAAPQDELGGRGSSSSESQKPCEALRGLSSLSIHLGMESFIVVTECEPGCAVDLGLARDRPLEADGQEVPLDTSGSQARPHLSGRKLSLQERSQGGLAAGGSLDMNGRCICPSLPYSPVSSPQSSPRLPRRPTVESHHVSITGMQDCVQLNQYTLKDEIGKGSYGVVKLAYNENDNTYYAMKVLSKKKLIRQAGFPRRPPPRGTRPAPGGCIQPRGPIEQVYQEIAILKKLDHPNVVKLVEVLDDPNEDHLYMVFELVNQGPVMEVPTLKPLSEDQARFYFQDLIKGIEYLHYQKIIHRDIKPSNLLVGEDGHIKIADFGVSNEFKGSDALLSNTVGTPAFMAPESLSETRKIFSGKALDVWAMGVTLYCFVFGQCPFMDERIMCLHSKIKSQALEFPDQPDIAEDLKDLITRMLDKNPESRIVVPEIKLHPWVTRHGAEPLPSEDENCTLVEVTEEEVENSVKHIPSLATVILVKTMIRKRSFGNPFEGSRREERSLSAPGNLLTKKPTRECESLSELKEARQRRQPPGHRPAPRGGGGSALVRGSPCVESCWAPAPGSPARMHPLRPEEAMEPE
Chain of ACVR2B (human) (Q13705 whole entry, looked up): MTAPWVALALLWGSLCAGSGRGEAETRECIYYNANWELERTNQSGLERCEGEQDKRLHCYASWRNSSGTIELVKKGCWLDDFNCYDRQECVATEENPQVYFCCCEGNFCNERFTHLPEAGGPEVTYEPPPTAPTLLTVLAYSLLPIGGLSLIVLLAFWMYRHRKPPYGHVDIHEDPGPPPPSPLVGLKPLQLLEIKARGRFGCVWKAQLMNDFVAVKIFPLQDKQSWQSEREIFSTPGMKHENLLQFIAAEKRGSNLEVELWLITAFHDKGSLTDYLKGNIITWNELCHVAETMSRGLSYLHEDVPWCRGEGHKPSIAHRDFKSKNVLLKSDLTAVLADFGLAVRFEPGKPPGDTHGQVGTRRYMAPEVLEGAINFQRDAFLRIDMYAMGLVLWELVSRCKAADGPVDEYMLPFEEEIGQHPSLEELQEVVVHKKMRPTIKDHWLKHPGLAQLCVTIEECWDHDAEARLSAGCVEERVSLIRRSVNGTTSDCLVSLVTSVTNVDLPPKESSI
Chain of RPS6KA6 KD2 (human) (Q9UK32 whole entry, looked up): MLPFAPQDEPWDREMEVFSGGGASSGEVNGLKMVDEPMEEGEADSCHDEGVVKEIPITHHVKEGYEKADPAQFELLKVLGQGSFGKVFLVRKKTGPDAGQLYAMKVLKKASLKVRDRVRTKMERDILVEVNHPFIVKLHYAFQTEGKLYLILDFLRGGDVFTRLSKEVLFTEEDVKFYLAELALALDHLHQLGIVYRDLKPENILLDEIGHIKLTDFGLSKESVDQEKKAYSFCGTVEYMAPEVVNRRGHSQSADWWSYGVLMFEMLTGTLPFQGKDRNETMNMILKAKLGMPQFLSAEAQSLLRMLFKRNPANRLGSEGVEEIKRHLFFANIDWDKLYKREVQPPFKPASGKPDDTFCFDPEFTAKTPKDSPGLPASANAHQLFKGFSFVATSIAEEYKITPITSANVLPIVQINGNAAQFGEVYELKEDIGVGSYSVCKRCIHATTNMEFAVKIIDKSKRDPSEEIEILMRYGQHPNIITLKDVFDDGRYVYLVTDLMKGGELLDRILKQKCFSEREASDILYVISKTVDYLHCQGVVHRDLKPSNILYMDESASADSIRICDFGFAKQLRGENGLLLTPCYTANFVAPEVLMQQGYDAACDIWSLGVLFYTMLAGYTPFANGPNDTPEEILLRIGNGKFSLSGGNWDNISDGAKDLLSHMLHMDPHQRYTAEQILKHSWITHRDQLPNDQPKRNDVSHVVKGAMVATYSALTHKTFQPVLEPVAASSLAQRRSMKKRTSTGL
Chain of DYRK1B (human) (Q9Y463 whole entry, looked up): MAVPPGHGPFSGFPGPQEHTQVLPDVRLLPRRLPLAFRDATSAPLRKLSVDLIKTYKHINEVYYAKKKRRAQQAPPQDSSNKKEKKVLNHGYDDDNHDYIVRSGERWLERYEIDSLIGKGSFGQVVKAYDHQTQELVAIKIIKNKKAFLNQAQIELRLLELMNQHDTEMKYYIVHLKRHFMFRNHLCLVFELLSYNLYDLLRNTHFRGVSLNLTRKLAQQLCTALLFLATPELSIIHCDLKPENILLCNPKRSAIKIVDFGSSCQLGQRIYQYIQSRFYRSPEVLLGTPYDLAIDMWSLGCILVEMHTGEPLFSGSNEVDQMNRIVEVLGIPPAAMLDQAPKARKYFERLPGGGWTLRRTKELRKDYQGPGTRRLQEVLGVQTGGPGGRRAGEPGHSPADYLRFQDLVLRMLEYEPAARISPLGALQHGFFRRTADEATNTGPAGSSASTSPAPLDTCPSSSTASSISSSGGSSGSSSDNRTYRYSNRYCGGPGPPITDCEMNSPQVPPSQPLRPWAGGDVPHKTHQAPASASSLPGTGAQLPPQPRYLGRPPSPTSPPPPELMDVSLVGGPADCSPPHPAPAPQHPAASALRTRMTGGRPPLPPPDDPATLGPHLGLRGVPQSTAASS
Chain of EPHA3 (human) (P29320 whole entry, looked up): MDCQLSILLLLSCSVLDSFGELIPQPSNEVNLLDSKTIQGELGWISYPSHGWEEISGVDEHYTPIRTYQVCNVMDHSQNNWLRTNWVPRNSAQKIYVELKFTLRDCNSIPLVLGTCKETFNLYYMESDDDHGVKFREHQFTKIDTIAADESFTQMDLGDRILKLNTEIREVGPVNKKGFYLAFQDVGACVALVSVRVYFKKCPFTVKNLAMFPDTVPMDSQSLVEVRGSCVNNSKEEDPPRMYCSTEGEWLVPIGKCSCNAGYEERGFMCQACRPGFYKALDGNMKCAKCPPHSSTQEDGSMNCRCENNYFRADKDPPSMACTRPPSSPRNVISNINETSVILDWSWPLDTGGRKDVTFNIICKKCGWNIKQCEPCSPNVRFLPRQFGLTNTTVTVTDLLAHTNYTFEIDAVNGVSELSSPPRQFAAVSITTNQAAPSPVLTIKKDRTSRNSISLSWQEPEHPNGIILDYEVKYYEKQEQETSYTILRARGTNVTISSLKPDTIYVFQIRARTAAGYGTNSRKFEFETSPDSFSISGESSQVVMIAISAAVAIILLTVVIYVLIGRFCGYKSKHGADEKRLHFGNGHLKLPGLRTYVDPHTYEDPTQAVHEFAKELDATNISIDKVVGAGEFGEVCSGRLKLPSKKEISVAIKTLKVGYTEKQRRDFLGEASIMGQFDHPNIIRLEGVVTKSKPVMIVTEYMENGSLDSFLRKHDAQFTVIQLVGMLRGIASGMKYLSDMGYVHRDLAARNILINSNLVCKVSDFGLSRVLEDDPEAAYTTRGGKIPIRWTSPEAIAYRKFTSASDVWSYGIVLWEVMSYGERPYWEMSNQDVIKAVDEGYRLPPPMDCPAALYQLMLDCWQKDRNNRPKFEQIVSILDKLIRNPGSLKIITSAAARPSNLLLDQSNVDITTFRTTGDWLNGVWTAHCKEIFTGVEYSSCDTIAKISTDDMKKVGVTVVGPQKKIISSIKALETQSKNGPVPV
Chain of GSK3A (human) (P49840 whole entry, looked up): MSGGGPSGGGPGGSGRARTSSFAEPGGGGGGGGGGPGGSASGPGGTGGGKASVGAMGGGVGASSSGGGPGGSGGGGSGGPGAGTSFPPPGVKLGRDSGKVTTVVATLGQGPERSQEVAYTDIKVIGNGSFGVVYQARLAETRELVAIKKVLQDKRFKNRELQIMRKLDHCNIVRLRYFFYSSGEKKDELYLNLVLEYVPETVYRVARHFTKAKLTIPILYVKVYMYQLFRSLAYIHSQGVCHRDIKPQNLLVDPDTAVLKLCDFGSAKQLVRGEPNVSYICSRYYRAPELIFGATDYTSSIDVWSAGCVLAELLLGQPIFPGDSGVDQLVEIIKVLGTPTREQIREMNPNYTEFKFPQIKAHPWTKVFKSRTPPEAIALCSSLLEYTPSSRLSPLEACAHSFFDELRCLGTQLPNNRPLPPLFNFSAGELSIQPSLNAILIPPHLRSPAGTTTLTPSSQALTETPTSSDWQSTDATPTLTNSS
Chain of PLK4 (human) (O00444 whole entry, looked up): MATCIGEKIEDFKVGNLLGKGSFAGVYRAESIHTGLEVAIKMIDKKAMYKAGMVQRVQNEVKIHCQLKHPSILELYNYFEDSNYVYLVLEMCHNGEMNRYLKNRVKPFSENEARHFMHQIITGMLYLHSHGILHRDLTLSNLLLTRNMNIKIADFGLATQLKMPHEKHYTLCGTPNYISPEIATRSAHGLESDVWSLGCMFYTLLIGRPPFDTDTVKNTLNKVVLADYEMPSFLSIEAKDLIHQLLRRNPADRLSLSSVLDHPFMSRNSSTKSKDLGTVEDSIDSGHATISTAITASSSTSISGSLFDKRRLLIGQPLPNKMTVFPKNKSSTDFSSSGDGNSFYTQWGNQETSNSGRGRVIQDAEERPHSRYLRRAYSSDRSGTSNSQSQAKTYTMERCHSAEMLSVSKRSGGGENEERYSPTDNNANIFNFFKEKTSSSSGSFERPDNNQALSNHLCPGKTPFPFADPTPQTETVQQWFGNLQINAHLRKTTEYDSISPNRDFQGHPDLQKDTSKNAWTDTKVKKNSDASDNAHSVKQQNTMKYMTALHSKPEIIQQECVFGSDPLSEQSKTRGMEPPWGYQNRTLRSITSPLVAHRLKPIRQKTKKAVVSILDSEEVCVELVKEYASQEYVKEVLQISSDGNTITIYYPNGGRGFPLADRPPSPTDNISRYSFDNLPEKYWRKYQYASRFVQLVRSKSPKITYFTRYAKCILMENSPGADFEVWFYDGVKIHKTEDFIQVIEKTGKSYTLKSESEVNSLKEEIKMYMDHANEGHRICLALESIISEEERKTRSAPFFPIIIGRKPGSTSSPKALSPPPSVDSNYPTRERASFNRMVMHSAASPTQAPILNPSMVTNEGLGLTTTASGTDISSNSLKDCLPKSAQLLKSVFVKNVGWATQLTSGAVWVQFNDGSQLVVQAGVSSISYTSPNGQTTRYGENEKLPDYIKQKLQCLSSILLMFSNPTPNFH

Consider `O=C1NC(=O)/C(=C/c2c[nH]c(=O)c(-c3ccc(N4CCNCC4)nc3)c2)S1`, for which the kinase still bound, per cent of control in assay [1] came out at 2.4%; in assay [2] it was 57%; in assay [3], 36%; in assay [4], 100%; in assay [5] it was 57%; in [6], 100%. Moreover, the kinase still bound, per cent of control stood at 100% in assay [7]; 7.8% in assay [8]; 31% in [9]; 85% in assay [10]; 0% in [11]; 13% in [12]. The kinase still bound, per cent of control in [13] turned out to be 35%; in [14] it was 100%; in assay [15] it was 3%; in [16] it was 76%; in assay [17] it was 100%; in assay [18] it was 67%. In addition, the kinase still bound, per cent of control was 60% in assay [19]; 75% in assay [20]; 100% in assay [21]; 84% in assay [22]; 91% in assay [23]; 60% in assay [24]. Further, the kinase still bound, per cent of control was 42% in [25]; 100% in [26]; 49% in assay [27]; 0.65% in assay [28]; 28% in assay [29]; 90% in assay [30]. The kinase still bound, per cent of control in assay [31] amounted to 79%; in assay [32] it was 94%; in assay [33], 9.9%; in assay [34], 29%; in assay [35], 36%; in [36] it was 90%. Moreover, the kinase still bound, per cent of control in assay [37] is 100%; in assay [38], 100%; in [39] it was 99%; in assay [40], 100%; in assay [41], 2.5%; in [42], 0.85%. Besides, the Kd in [11] was 150 nM; in assay [28], 3.7 nM; in assay [42], 220 nM.
For the compound `O=C1NC(=S)S/C1=C\c1ccc(-c2cncc3ccccc23)o1`, the kinase still bound, per cent of control came to 4.7% in assay [1]; 25% in assay [3]; 5.2% in [5]; 29% in assay [7]; 22% in assay [8]; 14% in assay [9]. For the same compound, the kinase still bound, per cent of control amounted to 3.1% in assay [11]; 13% in [15]; 17% in assay [18]; 1.8% in [19]; 28% in assay [23]; 23% in assay [24]. Besides, the kinase still bound, per cent of control in assay [25] was determined as 33%; in assay [28], 2.7%; in assay [30], 0.85%; in [31], 28%; in assay [32], 25%; in assay [34], 5.4%. Besides, the kinase still bound, per cent of control in assay [35] is 9.8%; in assay [39] it was 26%; in [40] it was 8.4%.
With `CS(=O)(=O)Nc1ccc(-c2ncc(/C=C3\SC(=N)NC3=O)s2)cc1`, the kinase still bound, per cent of control in assay [1] stood at 13%; in [2], 4.6%; in [3], 16%; in assay [7], 28%; in assay [9], 29%; in assay [13], 22%. Moreover, the kinase still bound, per cent of control is 3.1% in assay [15]; 12% in assay [19]; 1.3% in [25]; 2% in [28]; 11% in assay [30]; 6.6% in assay [33]. Moreover, the kinase still bound, per cent of control in assay [42] came to 24%.
Consider `N=C1NC(=O)/C(=C/c2ccc(-c3ccc(C(N)=O)cc3O)o2)S1`, for which the kinase still bound, per cent of control in assay [1] came to 15%; in assay [3], 22%; in assay [7] it was 17%; in [8], 28%; in assay [9], 33%; in assay [10] it was 28%. Also, the kinase still bound, per cent of control was found to be 19% in [11]; 5.6% in [15]; 17% in assay [20]; 9.2% in assay [27]; 5.4% in assay [28]; 8.8% in assay [30].
On to `N=C1NC(=O)/C(=C/c2ccc(-c3cncc4ccccc34)o2)S1`, for which the kinase still bound, per cent of control was 1.1% in assay [1]; 7.6% in [3]; 0.3% in assay [5]; 33% in assay [6]; 7.1% in assay [7]; 10% in assay [8]. Besides, the kinase still bound, per cent of control in assay [9] worked out at 7.4%; in assay [11], 1.6%; in assay [12], 3.4%; in assay [15], 11%; in assay [18], 13%; in [19] it was 0.45%. The kinase still bound, per cent of control worked out at 14% in [20]; 1.6% in assay [28]; 28% in assay [29]; 0.95% in assay [30]; 8.6% in [34]; 2.6% in assay [35]. In addition, the kinase still bound, per cent of control in assay [36] is 25%; in [39] it was 23%; in [40], 14%.

(Values after the kinase profiling compilation of Christmann-Franck et al. (2016).)
